Tested on: human hepatoma Huh-7 cell line harboring a HCV replicon
Assay: HCV replicon assay (inhibition of viral replication, luciferase readout)
Format: cell-based
Conditions: Hepatitis C virus, 72 h, Huh-7 HCV replicon cells, 3 days incubation
In short: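 Huh-7 replicon cells were exposed to 10-point 3-fold compound dilutions (0.44% DMSO) for 3 days at 37 °C. Replicon replication was read by Dual-Glo luciferase, with background from protease-inhibitor wells subtracted, and viability by calcein AM. EC50/CC50 came from a Hill-equation fit versus DMSO controls.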

With CC1CCC(C(=O)N(c2ccc(Oc3ccccn3)cc2)c2cc(C#CC(C)(C)C)sc2C(=O)O)CC1 (stereo not drawn) [Compound 30, 5-(3,3-Dimethyl-but-1-ynyl)-3-{(4-methyl-cyclohexanecarbonyl)-[4-(pyridin-2-yloxy)-phenyl]-amino}-thiophene-2-carboxylic acid] the inhibition at 2 µM was 70.7%.

For CC1=CC[C@@H](C(=O)N(c2cc(C#CC(C)(C)C)sc2C(=O)O)[C@H]2CC[C@H](O[C@H]3CCOC3)CC2)CC1 [Compound 333], the inhibition at 2 µM was 100%.

With CC(C)(C)C#Cc1cc(N(C(=O)[C@H]2CC[C@H](C)CC2)[C@H]2CC[C@H](O[C@H]3COC[C@H]3O)CC2)c(C(=O)O)s1 [Compound 317, 5-(3,3-dimethyl-but-1-ynyl)-3-[[4-(4-cis-hydroxy-tetrahydro-furan-3-yloxy)-cyclohexyl]-(4-methyl-cyclohexanecarbonyl)-amino]-thiophene-2-carboxylic acid] the inhibition at 2 µM was 100%.

CC(C)(C)C#Cc1cc(N(C(=O)[C@H]2CC[C@H](C)CC2)[C@H]2CC[C@H](O[C@@H]3CCOC3)CC2)c(C(=O)O)s1 [Compound 322] was tested, and the inhibition at 2 µM was 100%.

CC(C)(C)C#Cc1cc(N(C(=O)[C@H]2CC[C@H](C)CC2)[C@H]2CC[C@H](Oc3cc[nH]c(=O)n3)CC2)c(C(=O)O)s1 [Compound 147, 5-(3,3-Dimethyl-but-1-ynyl)-3-{(trans-4-methyl-cyclohexanecarbonyl)-[trans-4-(2-oxo-1,2-dihydro-pyrimidin-4-yloxy)-cyclohexyl]-amino}-thiophene-2-carboxylic acid] showed an inhibition at 2 µM of 99.9%.

In the case of Cc1nc(S(=O)(=O)N2CC[C@H](N(c3cc(C#CC(C)(C)C)sc3C(=O)O)C(=O)[C@H]3CC[C@H](C)CC3)C2)cn1C [Compound 212, 5-(3,3-Dimethyl-but-1-ynyl)-3-[[1-(1,2-dimethyl-1H-imidazole-4-sulfonyl)-pyrrolidin-3-yl]-(4-methyl-cyclohexanecarbonyl)-amino]-thiophene-2-carboxylic acid], the inhibition at 2 µM is reported as 99.3%.

For CC(C)(C)C#Cc1cc(N(C(=O)[C@H]2CC[C@H](C)CC2)[C@H]2CC[C@H](Oc3cc(C(=O)N4CCC4)ccn3)CC2)c(C(=O)O)s1 [Compound 168, Sodium 3-(N-(4-(4-(azetidine-1-carbonyl)pyridin-2-yloxy)cyclohexyl)-4-methylcyclohexanecarboxamido)-5-(3,3-dimethylbut-1-ynyl)thiophene-2-carboxylate], the inhibition at 2 µM was 99.9%.

For CC1=CC[C@H](C(=O)N(c2cc(C#CC(C)(C)C)sc2C(=O)O)[C@H]2CC[C@H](OC3CCOC3)CC2)CC1 (stereo partly drawn) [Compound 335], the inhibition at 2 µM was 99.9%.

In the case of CC(C)(C)C#Cc1cc(N(C(=O)[C@H]2CC[C@H](C)CC2)C2CCN(S(=O)(=O)c3ccsc3)CC2)c(C(=O)O)s1 [Compound 205, 5-(3,3-Dimethyl-but-1-ynyl)-3-{(4-methyl-cyclohexanecarbonyl)-[1-(thiophene-3-sulfonyl)-piperidin-4-yl]-amino}-thiophene-2-carboxylic acid], the inhibition at 2 µM is reported as 99.9%.

In the case of CC(C)(C)C#Cc1cc(N(C(=O)[C@H]2CC[C@H](C)CC2)[C@H]2CC[C@H](Oc3cccc(N4CCCC4)n3)CC2)c(C(=O)O)s1 [Compound 152, 5-(3,3-Dimethylbut-1-ynyl)-3-(4-methyl-N-(4-(6-(pyrrolidin-1-yl)pyridin-2-yloxy)cyclohexyl)cyclohexanecarboxamido)thiophene-2-carboxylic acid], the inhibition at 2 µM is reported as 73.7%.

CC1CCC(C(=O)N(c2cc(C#CC(C)(C)C)sc2C(=O)O)[C@H]2CC[C@H](Oc3cncc(CN(C)C)c3)CC2)CC1 (stereo partly drawn) [Compound 192, 3-[[-4-(5-dimethylaminomethyl-pyridin-3-yloxy)-cyclohexyl]-(4-methyl-cyclohexanecarbonyl)-amino]-5-(3,3-dimethyl-but-1-ynyl)-thiophene-2-carboxylic acid] was tested, and the inhibition at 2 µM was 100%.

With CC(C)(C#Cc1cc(N(C(=O)[C@H]2CC[C@H](C)CC2)[C@H]2CC[C@H](Oc3ccc(O)nn3)CC2)c(C(=O)O)s1)C(F)(F)F [Compound 343, 3-((1r,4R)—N-((1r,4R)-4-(6-hydroxypyridazin-3-yloxy)cyclohexyl)-4-methylcyclohexanecarboxamido)-5-(4,4,4-trifluoro-3,3-dimethylbut-1-ynyl)thiophene-2-carboxylic acid] the inhibition at 2 µM was 100%.

C[C@H]1CC[C@H](C(=O)N(c2cc(C#CC3(C(F)(F)F)CC3)sc2C(=O)O)[C@H]2CC[C@H](Oc3ccncn3)CC2)CC1 [Compound 344, 3-((1r,4R)-4-methyl-N-((1r,4R)-4-(pyrimidin-4-yloxy)cyclohexyl)cyclohexanecarboxamido)-5-(2-(1-(trifluoromethyl)cyclopropyl)ethynyl)thiophene-2-carboxylic acid] gave an inhibition at 2 µM of 99.8%.

CC(C)(C)C#Cc1cc(N(C(=O)[C@H]2CC[C@H](C)CC2)[C@H]2CC[C@H](Oc3ncccc3C(F)(F)F)CC2)c(C(=O)O)s1 [Compound 16, 5-(3,3-Dimethyl-but-1-ynyl)-3-{(trans-4-methyl-cyclohexanecarbonyl)-[trans-4-(3-trifluoromethyl-pyridin-2-yloxy)-cyclohexyl]-amino}-thiophene-2-carboxylic acid] gave an inhibition at 2 µM of 75.1%.

With CC(C)(C)C#Cc1cc(N(C(=O)[C@H]2CC[C@H](C)CC2)[C@H]2CC[C@H](Oc3ccc(C#N)cn3)CC2)c(C(=O)O)s1 [Compound 9, 3-[[trans-4-(5-Cyano-pyridin-2-yloxy)-cyclohexyl]-(trans-4-methyl-cyclohexanecarbonyl)-amino]-5-(3,3-dimethyl-but-1-ynyl)-thiophene-2-carboxylic acid] the inhibition at 2 µM was 99.3%.

C[C@H]1CC[C@H](C(=O)N(c2cc(C#CC3(C(F)(F)F)CCC3)sc2C(=O)O)[C@H]2CC[C@H](Oc3ccc(O)nn3)CC2)CC1 [Compound 339, 3-((1r,4R)—N-((1r,4R)-4-(6-hydroxypyridazin-3-yloxy)cyclohexyl)-4-methylcyclohexanecarboxamido)-5-((1-(trifluoromethyl)cyclobutyl)ethynyl)thiophene-2-carboxylic acid] was tested, and the inhibition at 2 µM was 99.9%.

With CC(C)(C)C#Cc1cc(N(C(=O)[C@H]2CC[C@H](C)CC2)[C@H]2CC[C@H](Oc3cccc(C(F)(F)F)n3)CC2)c(C(=O)O)s1 [Compound 17, 5-(3,3-Dimethyl-but-1-ynyl)-3-{(trans-4-methyl-cyclohexanecarbonyl)-[trans-4-(6-trifluoromethyl-pyridin-2-yloxy)-cyclohexyl]-amino}-thiophene-2-carboxylic acid] the inhibition at 2 µM was 67.6%.

CC1=CC[C@H](C(=O)N(c2cc(C#CC(C)(C)C)sc2C(=O)O)[C@H]2CC[C@H](O[C@H]3CCOC3)CC2)CC1 [Compound 336] gave an inhibition at 2 µM of 100%.

Work on CN(C)Cc1ccnc(O[C@H]2CC[C@H](N(c3cc(C#CC(C)(C)C(F)(F)F)sc3C(=O)O)C(=O)[C@H]3CC[C@H](C)CC3)CC2)c1 [Compound 341, 3-((1r,4R)—N-((1r,4R)-4-(4-((dimethylamino)methyl)pyridin-2-yloxy)cyclohexyl)-4-methylcyclohexanecarboxamido)-5-(4,4,4-trifluoro-3,3-dimethylbut-1-ynyl)thiophene-2-carboxylic acid] yielded an inhibition at 2 µM of 100%.

CC(C)(C)C#Cc1cc(N(C(=O)[C@H]2CC[C@H](C)CC2)[C@H]2CC[C@H](Oc3cnc(Cl)cn3)CC2)c(C(=O)O)s1 [Compound 184, 3-(N-(4-(5-Chloropyrazin-2-yloxy)cyclohexyl)-4-methylcyclohexanecarboxamido)-5-(3,3-dimethylbut-1-ynyl)thiophene-2-carboxylic acid] gave an inhibition at 2 µM of 97.8%.

CC(C)(C)C#Cc1cc(N(C(=O)[C@H]2CC[C@H](C)CC2)C2CCC(Oc3nc(CN4CCCC4)cs3)CC2)c(C(=O)O)s1 (stereo partly drawn) [Compound 155, 5-(3,3-Dimethylbut-1-ynyl)-3-(4-methyl-N-(4-(4-(pyrrolidin-1-ylmethyl)thiazol-2-yloxy)cyclohexyl)cyclohexanecarboxamido)thiophene-2-carboxylic acid] gave an inhibition at 2 µM of 100%.

CN1CCC(NC(=O)c2ccnc(O[C@H]3CC[C@H](N(c4cc(C#CC(C)(C)C)sc4C(=O)O)C(=O)[C@H]4CC[C@H](C)CC4)CC3)c2)CC1 [Compound 167, Sodium 3-(N-(4-(4-((1-methylpiperidin-4-yl)carbamoyl)pyridin-2-yloxy)cyclohexyl)-4-methylcyclohexanecarboxamido)-5-(3,3-dimethylbut-1-ynyl)thiophene-2-carboxylate] showed an inhibition at 2 µM of 99.9%.

CC1CCC(C(=O)N(c2cc(C#CC(C)(C)C)sc2C(=O)O)[C@H]2CC[C@H](Oc3cncc(CN4CCCC4)c3)CC2)CC1 (stereo partly drawn) [Compound 193, 3-[[-4-(5-pyrrolidin-1-ylmethyl-pyridin-3-yloxy)-cyclohexyl]-(4-methyl-cyclohexanecarbonyl)-amino]-5-(3,3-dimethyl-but-1-ynyl)-thiophene-2-carboxylic acid] showed an inhibition at 2 µM of 100%.

For CC(C)(C)C#Cc1cc(N(C(=O)[C@H]2CC[C@H](C)CC2)[C@H]2CC[C@@H](Sc3nncs3)CC2)c(C(=O)O)s1 [Compound 105, 3-(N-(4-(1,3,4-Thiadiazol-2-ylthio)cyclohexyl)-4-methylcyclohexanecarboxamido)-5-(3,3-dimethylbut-1-ynyl)thiophene-2-carboxylic acid], the inhibition at 2 µM was 99.9%.

CC1=CCC(C(=O)N(c2cc(C#CC(C)(C)C)sc2C(=O)O)[C@H]2CC[C@H](O[C@H]3CCOC3)CC2)[C@H](C)C1 (single isomer, unassigned) [Compound 303] was tested, and the inhibition at 2 µM was 99.9%.

For CC(C)(C)C#Cc1cc(N(C(=O)[C@H]2CC[C@H](C)CC2)[C@H]2C[C@@H](Oc3cccnc3)C2)c(C(=O)O)s1 [Compound 20, 5-(3,3-Dimethyl-but-1-ynyl)-3-{(trans-4-methyl-cyclohexanecarbonyl)-[cis-3-(pyridin-3-yloxy)-cyclobutyl]-amino}-thiophene-2-carboxylic acid], the inhibition at 2 µM was 99.8%.

Compound Cn1nc(O[C@H]2CC[C@H](N(c3cc(C#CC(C)(C)C)sc3C(=O)O)C(=O)[C@H]3CC[C@H](C)CC3)CC2)ccc1=O [Compound 174, 5-(3,3-Dimethylbut-1-ynyl)-3-(4-methyl-N-(4-(1-methyl-6-oxo-1,6-dihydropyridazin-3-yloxy)cyclohexyl)cyclohexanecarboxamido)thiophene-2-carboxylic acid] has an inhibition at 2 µM of 100%.

Reference: patent publication US8569302B2, “Inhibitors of flaviviridae viruses” (Gilead Sciences, Inc., priority 2009, dated 2013)
